Experiments:
Escherichia coli [1] = experiment: Antibacterial activity against Escherichia coli MG1655 harboring pColD-lux assessed as maximum induction factor at 10^-11 M after 120 mins by luminometric analysis; type: functional, K-12 substr. MG1655
Escherichia coli [2] = experiment: Antibacterial activity against Escherichia coli MG1655 harboring pGrpE-lux assessed as maximum induction factor at 10^-11 M after 120 mins by luminometric analysis; type: functional, K-12 substr. MG1655
[3] = Activation of quorum sensing system luxR in Escherichia coli MG1655 harboring pVFR1-lux assessed as maximum induction factor at 10^-11 M after 120 mins by luminometric analysis; conditions: Escherichia coli str. K-12 substr. MG1655
Escherichia coli [4] = experiment: Antibacterial activity against Escherichia coli MG1655 harboring pColD-lux assessed as maximum induction factor at 10^-12 M after 120 mins by luminometric analysis; type: functional, K-12 substr. MG1655
Escherichia coli [5] = experiment: Antibacterial activity against Escherichia coli MG1655 harboring pGrpE-lux assessed as maximum induction factor at 10^-12 M after 120 mins by luminometric analysis; type: functional, K-12 substr. MG1655
[6] = Activation of quorum sensing system luxR in Escherichia coli MG1655 harboring pVFR1-lux assessed as maximum induction factor at 10^-12 M after 120 mins by luminometric analysis; conditions: Escherichia coli str. K-12 substr. MG1655
Escherichia coli [7] = experiment: Antibacterial activity against Escherichia coli MG1655 harboring pColD-lux assessed as maximum induction factor at 10^-13 M after 120 mins by luminometric analysis; type: functional, K-12 substr. MG1655
Escherichia coli [8] = experiment: Antibacterial activity against Escherichia coli MG1655 harboring pSoxS-lux assessed as maximum induction factor at 10^-14 M after 120 mins by luminometric analysis; type: functional, K-12 substr. MG1655
Escherichia coli [9] = experiment: Antibacterial activity against Escherichia coli MG1655 harboring pKatG-lux assessed as maximum induction factor at 10^-14 M after 120 mins by luminometric analysis; type: functional, K-12 substr. MG1655
Escherichia coli [10] = experiment: Antibacterial activity against Escherichia coli MG1655 harboring pRecA-lux assessed as maximum induction factor at 10^-14 M after 120 mins by luminometric analysis; type: functional, K-12 substr. MG1655
Vibrio sp. [11] = experiment: Antibacterial activity against Vibrio aqamarinus VKPM B-11245 assessed as toxicity index at 10^-5 M measured for 2 hrs by luminometric analysis; type: functional
Vibrio sp. [12] = experiment: Antibacterial activity against Vibrio aqamarinus VKPM B-11245 assessed as toxicity index at 10^-6 M measured for 2 hrs by luminometric analysis; type: functional
Vibrio sp. [13] = experiment: Antibacterial activity against Vibrio aqamarinus VKPM B-11245 assessed as toxicity index at 10^-10 M measured for 2 hrs by luminometric analysis; type: functional
Vibrio sp. [14] = experiment: Antibacterial activity against Vibrio aqamarinus VKPM B-11245 assessed as toxicity index at 10^-12 M measured for 2 hrs by luminometric analysis; type: functional
Vibrio sp. [15] = experiment: Antibacterial activity against Vibrio aqamarinus VKPM B-11245 assessed as toxicity index at 10^-13 M measured for 2 hrs by luminometric analysis; type: functional
Vibrio sp. [16] = experiment: Antibacterial activity against Vibrio aqamarinus VKPM B-11245 assessed as toxicity index at 10^-14 M measured for 2 hrs by luminometric analysis; type: functional
Escherichia coli [17] = experiment: Antibacterial activity against Escherichia coli MG1655 harboring pXen7 assessed as toxicity index at 10^-3 M measured for 2 hrs by luminometric analysis; type: functional, K-12 substr. MG1655
Escherichia coli [18] = experiment: Antibacterial activity against Escherichia coli MG1655 harboring pXen7 assessed as toxicity index at 10^-4 M measured for 2 hrs by luminometric analysis; type: functional, K-12 substr. MG1655
Escherichia coli [19] = experiment: Antibacterial activity against Escherichia coli MG1655 harboring pXen7 assessed as toxicity index at 10^-8 M measured for 2 hrs by luminometric analysis; type: functional, K-12 substr. MG1655
Escherichia coli [20] = experiment: Antibacterial activity against Escherichia coli MG1655 harboring pXen7 assessed as toxicity index at 10^-11 M measured for 2 hrs by luminometric analysis; type: functional, K-12 substr. MG1655
Escherichia coli [21] = experiment: Antibacterial activity against Escherichia coli MG1655 harboring pXen7 assessed as toxicity index at 10^-13 M measured for 2 hrs by luminometric analysis; type: functional, K-12 substr. MG1655
Escherichia coli [22] = experiment: Antibacterial activity against Escherichia coli MG1655 harboring pSoxS-lux assessed as maximum induction factor at 10^-3 M after 120 mins by luminometric analysis; type: functional, K-12 substr. MG1655
Escherichia coli [23] = experiment: Antibacterial activity against Escherichia coli MG1655 harboring pRecA-lux assessed as maximum induction factor at 10^-3 M after 120 mins by luminometric analysis; type: functional, K-12 substr. MG1655
[24] = Activation of quorum sensing system luxR in Escherichia coli MG1655 harboring pVFR1-lux assessed as maximum induction factor at 10^-3 M after 120 mins by luminometric analysis; conditions: Escherichia coli str. K-12 substr. MG1655
Escherichia coli [25] = experiment: Antibacterial activity against Escherichia coli MG1655 harboring pRecA-lux assessed as maximum induction factor at 10^-4 M after 120 mins by luminometric analysis; type: functional, K-12 substr. MG1655
Escherichia coli [26] = experiment: Antibacterial activity against Escherichia coli MG1655 harboring pIbpA-lux assessed as maximum induction factor at 10^-4 M after 120 mins by luminometric analysis; type: functional, K-12 substr. MG1655
[27] = Activation of quorum sensing system luxR in Escherichia coli MG1655 harboring assessed as maximum induction factor at 10^-4 M after 120 mins by luminometric analysis; conditions: Escherichia coli str. K-12 substr. MG1655
Escherichia coli [28] = experiment: Antibacterial activity against Escherichia coli MG1655 harboring pRecA-lux assessed as maximum induction factor at 10^-5 M after 120 mins by luminometric analysis; type: functional, K-12 substr. MG1655
Escherichia coli [29] = experiment: Antibacterial activity against Escherichia coli MG1655 harboring pGrpE-lux assessed as maximum induction factor at 10^-5 M after 120 mins by luminometric analysis; type: functional, K-12 substr. MG1655
Escherichia coli [30] = experiment: Antibacterial activity against Escherichia coli MG1655 harboring pKatG-lux assessed as maximum induction factor at 10^-6 M after 120 mins by luminometric analysis; type: functional, K-12 substr. MG1655
Escherichia coli [31] = experiment: Antibacterial activity against Escherichia coli MG1655 harboring pRecA-lux assessed as maximum induction factor at 10^-6 M after 120 mins by luminometric analysis; type: functional, K-12 substr. MG1655
[32] = Activation of quorum sensing system luxR in Escherichia coli MG1655 harboring pVFR1-lux assessed as maximum induction factor at 10^-6 M after 120 mins by luminometric analysis; conditions: Escherichia coli str. K-12 substr. MG1655
Escherichia coli [33] = experiment: Antibacterial activity against Escherichia coli MG1655 harboring pColD-lux assessed as maximum induction factor at 10^-7 M after 120 mins by luminometric analysis; type: functional, K-12 substr. MG1655
Escherichia coli [34] = experiment: Antibacterial activity against Escherichia coli MG1655 harboring pColD-lux assessed as maximum induction factor at 10^-8 M after 120 mins by luminometric analysis; type: functional, K-12 substr. MG1655
Escherichia coli [35] = experiment: Antibacterial activity against Escherichia coli MG1655 harboring pIbpA-lux assessed as maximum induction factor at 10^-8 M after 120 mins by luminometric analysis; type: functional, K-12 substr. MG1655
Escherichia coli [36] = experiment: Antibacterial activity against Escherichia coli MG1655 harboring pColD-lux assessed as maximum induction factor at 10^-9 M after 120 mins by luminometric analysis; type: functional, K-12 substr. MG1655
Escherichia coli [37] = experiment: Antibacterial activity against Escherichia coli MG1655 harboring pGrpE-lux assessed as maximum induction factor at 10^-9 M after 120 mins by luminometric analysis; type: functional, K-12 substr. MG1655
Escherichia coli [38] = experiment: Antibacterial activity against Escherichia coli MG1655 harboring pRecA-lux assessed as maximum induction factor at 10^-10 M after 120 mins by luminometric analysis; type: functional, K-12 substr. MG1655
Escherichia coli [39] = experiment: Antibacterial activity against Escherichia coli MG1655 harboring pColD-lux assessed as maximum induction factor at 10^-10 M after 120 mins by luminometric analysis; type: functional, K-12 substr. MG1655
Escherichia coli [40] = experiment: Antibacterial activity against Escherichia coli MG1655 harboring pGrpE-lux assessed as maximum induction factor at 10^-10 M after 120 mins by luminometric analysis; type: functional, K-12 substr. MG1655

O=[N+]([O-])c1cc([N+](=O)[O-])c2no[n+]([O-])c2c1Sc1nc2ccccc2s1
Activity (Escherichia coli [1]): 1.07
Activity (Escherichia coli [2]): 1.05
Activity [3]: 1.51
Activity (Escherichia coli [4]): 1.1
Activity (Escherichia coli [5]): 1.31
Activity [6]: 2.96
Activity (Escherichia coli [7]): 1.01
Activity (Escherichia coli [8]): 1.2
Activity (Escherichia coli [9]): 0.78
Activity (Escherichia coli [10]): 1.07
Activity (Vibrio sp. [11]): 98.83
Activity (Vibrio sp. [12]): 73.17
Activity (Vibrio sp. [13]): 11.61
Activity (Vibrio sp. [14]): 0
Activity (Vibrio sp. [15]): 3.44
Activity (Vibrio sp. [16]): 5.94
Activity (Escherichia coli [17]): 99.87
Activity (Escherichia coli [18]): 98
Activity (Escherichia coli [19]): 7.28
Activity (Escherichia coli [20]): 0
Activity (Escherichia coli [21]): 0
Activity (Escherichia coli [22]): 1.8
Activity (Escherichia coli [23]): 0.25
Activity [24]: 1.68
Activity (Escherichia coli [25]): 0.85
Activity (Escherichia coli [26]): 0.63
Activity [27]: 0.99
Activity (Escherichia coli [28]): 0.93
Activity (Escherichia coli [29]): 0.88
Activity (Escherichia coli [30]): 0.8
Activity (Escherichia coli [31]): 0.92
Activity [32]: 3.03
Activity (Escherichia coli [33]): 1.07
Activity (Escherichia coli [34]): 1.08
Activity (Escherichia coli [35]): 1.18
Activity (Escherichia coli [36]): 1.05
Activity (Escherichia coli [37]): 1.03
Activity (Escherichia coli [38]): 1
Activity (Escherichia coli [39]): 1.04
Activity (Escherichia coli [40]): 1.15

Reference: ChEMBL document CHEMBL3407459, “Synthesis and antimicrobial activity of novel structural hybrids of benzofuroxan and benzothiazole derivatives” (2015)
